{"source": "patent US20230143612A1", "about": "(Arbutus Biopharma Corporation, priority 2020, published 2023)", "note": "pIC50: −log10 of the molar value.", "data": [{"biological_target": "PD-L1 His protein / PD-1 Fc protein (Homo sapiens, UniProt Q9NZQ7)", "sequence (Q9NZQ7 19-238 limits assumed)": "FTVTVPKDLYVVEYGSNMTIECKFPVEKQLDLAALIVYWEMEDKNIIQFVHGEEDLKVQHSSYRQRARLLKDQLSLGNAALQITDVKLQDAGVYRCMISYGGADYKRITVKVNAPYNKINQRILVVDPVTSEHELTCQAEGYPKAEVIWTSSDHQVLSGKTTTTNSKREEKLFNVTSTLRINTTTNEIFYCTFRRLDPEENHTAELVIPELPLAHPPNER", "experiment": "HTRF Assay (PD-1/PD-L1 interaction)", "type": "binding", "details": "PD-L1 His 6 nM, PD-1 Fc 6 nM", "procedure,_shortened": "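Compounds tested from 20 μM down to 0.001 μM (3-fold) against 6 nM PD-L1 His and 6 nM PD-1 Fc, 15 min room temperature incubation. Detection after 1 h at room temperature with Tb cryptate anti-6HIS and XL665 anti-human IgG reagents (mixture at 0.35 nM and 6.7 nM), HTRF signal.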", "values": [{"smiles": "COc1nc(-c2cccc(-c3cccc(-c4ccn5c(=O)c(CNC[C@@H]6CCC(=O)N6)cnc5c4)c3Cl)c2Cl)ccc1CN1CC(C(=O)O)C1", "note": "[Example 119, (S)-1-((6-(2,2′-Dichloro-3′-(4-oxo-3-((((5-oxopyrrolidin-2-yl)methyl)amino)methyl)-4H-pyrido[1,2-a]pyrimidin-8-yl)-[1,1′-biphenyl]-3-yl)-2-methoxypyridin-3-yl)methyl)azetidine-3-carboxylic acid]", "pIC50": 9.52}, {"smiles": "COc1nc(-c2cccc(-c3cccc(-c4ccn5c(=O)c(CN6CCCC[C@H]6C(=O)O)cnc5c4)c3Cl)c2Cl)ccc1CNC[C@@H]1CCC(=O)N1", "note": "[Example 129, (S)-1-((8-(2,2′-Dichloro-3′-(6-methoxy-5-(((((S)-5-oxopyrrolidin-2-yl)methyl)amino)methyl)pyridin-2-yl)-[1,1′-biphenyl]-3-yl)-4-oxo-4H-pyrido[1,2-a]pyrimidin-3-yl)methyl)piperidine-2-carboxylic acid]", "pIC50": 9.52}, {"smiles": "COc1nc(-c2cccc(-c3cccc(-c4ccn5c(=O)c(CN6CC[C@H](C(=O)O)C6)cnc5c4)c3Cl)c2Cl)ccc1CNC[C@@H]1CCC(=O)N1", "note": "[Example 94, (S)-1-((8-(2,2′-Dichloro-3′-(6-methoxy-5-(((((S)-5-oxopyrrolidin-2-yl)methyl)amino)methyl)pyridin-2-yl)-[1,1′-biphenyl]-3-yl)-4-oxo-4H-pyrido[1,2-a]pyrimidin-3-yl)methyl)pyrrolidine-3-carboxylic acid]", "pIC50": 9.52}, {"smiles": "COc1nc(-c2cccc(-c3cccc(-c4ccn5c(=O)c(CNC[C@@H](C)O)cnc5c4)c3Cl)c2Cl)ccc1CNC[C@@H]1CCC(=O)N1", "note": "[Example 132, 8-(2,2′-Dichloro-3′-(6-methoxy-5-(((((S)-5-oxopyrrolidin-2-yl)methyl)amino)methyl)pyridin-2-yl)-[1,1′-biphenyl]-3-yl)-3-((((R)-2-hydroxypropyl)amino)methyl)-4H-pyrido[1,2-a]pyrimidin-4-one]", "pIC50": 8.77}, {"smiles": "Cc1c(COc2cc(OCc3cncc(C#N)c3)c(CNC[C@@H]3CCC(=O)N3)cc2Cl)cccc1-c1cccc(-c2ccn3c(=O)c(CNC[C@@H]4CCC(=O)N4)ccc3c2)c1C", "note": "[Example 24, 5-((4-Chloro-5-((2,2′-dimethyl-3′-(4-oxo-3-(((((S)-5-oxopyrrolidin-2-yl)methyl)amino)methyl)-4H-quinolizin-8-yl)-[1,1′-biphenyl]-3-yl)methoxy)-2-(((((S)-5-oxopyrrolidin-2-yl)methyl)amino)methyl)phenoxy)methyl)nicotinonitrile]", "pIC50": 9.30}, {"smiles": "COc1nc(-c2cccc(-c3cccc(-c4ccc5c(n4)OCCN(CCO)C5)c3Cl)c2Cl)ccc1CNC[C@@H]1CCC(=O)N1", "note": "[Example 267, (S)-5-((((6-(2,2′-Dichloro-3′-(4-(2-hydroxyethyl)-2,3,4,5-tetrahydropyrido[3,2-f][1,4]oxazepin-8-yl)-[1,1′-biphenyl]-3-yl)-2-methoxypyridin-3-yl)methyl)amino)methyl)pyrrolidin-2-one]", "pIC50": 9.70}, {"smiles": "COc1nc(-c2cccc(-c3cccc(-c4ccc5c(n4)CCCC5NC[C@@H]4CCC(=O)N4)c3Cl)c2Cl)ccc1CNC[C@@H]1CCC(=O)N1", "note": "(mixture of isomers) [Example 235, (5S)-5-((((6-(2,2′-Dichloro-3′-(5-((((S)-5-oxopyrrolidin-2-yl)methyl)amino)-5,6,7,8-tetrahydroquinolin-2-yl)-[1,1′-biphenyl]-3-yl)-2-methoxypyridin-3-yl)methyl)amino)methyl)pyrrolidin-2-one]", "pIC50": 9.00}, {"smiles": "Cc1c(-c2ccn3c(=O)c(CNC[C@@H]4CCC(=O)N4)cnc3c2)cccc1-c1cccc(-c2ccn3c(=O)c(CNC[C@@H]4CCC(=O)N4)cnc3c2)c1C", "note": "[Example 37, 8,8′-(2,2′-Dimethyl-[1,1′-biphenyl]-3,3′-diyl)bis(3-(((((S)-5-oxopyrrolidin-2-yl)methyl)amino)methyl)-4H-pyrido[1,2-a]pyrimidin-4-one)]", "pIC50": 6.85}, {"smiles": "COc1nc(-c2cccc(-c3cccc(-c4cc5c(=O)n(C)c(CNC67CC(O)(C6)C7)nn5c4)c3Cl)c2Cl)ccc1CNC[C@@H]1CCC(=O)N1", "note": "[Example 473, (S)-6-(2,2′-Dichloro-3′-(6-methoxy-5-((((5-oxopyrrolidin-2-yl)methyl)amino)methyl)pyridin-2-yl)-[1,1′-biphenyl]-3-yl)-2-(((3-hydroxybicyclo[1.1.1]pentan-1-yl)amino)methyl)-3-methylpyrrolo[2,1-f][1,2,4]triazin-4(3H)-one]", "pIC50": 8.28}, {"smiles": "COc1nc(-c2cc(F)cc(-c3cccc(-c4ccn5c(=O)c(CNC[C@@H]6CCC(=O)N6)cnc5c4)c3C)c2Cl)ccc1CNC[C@@H]1CCC(=O)N1", "note": "[Example 97, 8-(2′-Chloro-5′-fluoro-3′-(6-methoxy-5-(((((S)-5-oxopyrrolidin-2-yl)methyl)amino)methyl)pyridin-2-yl)-2-methyl-[1,1′-biphenyl]-3-yl)-3-(((((S)-5-oxopyrrolidin-2-yl)methyl)amino)methyl)-4H-pyrido[1,2-a]pyrimidin-4-one]", "pIC50": 8.29}, {"smiles": "COc1nc(-c2cccc(-c3cccc(-c4ccn5c(=O)c(CNC[C@H](C)O)cnc5c4)c3Cl)c2Cl)ccc1CNC[C@@H]1CCC(=O)N1", "note": "[Example 131, 8-(2,2′-dichloro-3′-(6-methoxy-5-(((((S)-5-oxopyrrolidin-2-yl)methyl)amino)methyl)pyridin-2-yl)-[1,1′-biphenyl]-3-yl)-3-((((S)-2-hydroxypropyl)amino)methyl)-4H-pyrido[1,2-a]pyrimidin-4-one]", "pIC50": 8.77}, {"smiles": "CNC(=O)CN(C)Cc1cnc2cc(-c3cccc(-c4cccc(-c5ccc(CNC[C@@H]6CCC(=O)N6)c(OC)n5)c4Cl)c3Cl)ccn2c1=O", "note": "[Example 200, (S)-2-(((8-(2,2′-Dichloro-3′-(6-methoxy-5-((((5-oxopyrrolidin-2-yl)methyl)amino)methyl)pyridin-2-yl)-[1,1′-biphenyl]-3-yl)-4-oxo-4H-pyrido[1,2-a]pyrimidin-3-yl)methyl)(methyl)amino)-N-methylacetamide]", "pIC50": 10.00}, {"smiles": "COc1nc(-c2cccc(-c3cccc(-c4cc5c(=O)n(C)c(CNC[C@@H]6CCO6)nn5c4)c3Cl)c2Cl)ccc1CNC[C@@H]1CCC(=O)N1", "note": "[Example 472, 6-[2-Chloro-3-[2-chloro-3-[6-methoxy-5-[[[(2S)-5-oxopyrrolidin-2-yl]methylamino]methyl]-2-pyridyl]phenyl]phenyl]-3-methyl-2-[[[(2S)-oxetan-2-yl]methylamino]methyl]pyrrolo[2,1-f][1,2,4]triazin-4-one]", "pIC50": 6.40}, {"smiles": "COc1nc(-c2cccc(-c3cccc(-c4ccn5c(=O)c(CNCC6(C)COC6)cnc5c4)c3Cl)c2Cl)ccc1CNC[C@@H]1CCC(=O)N1", "note": "[Example 246, (S)-8-(2,2′-dichloro-3′-(6-methoxy-5-((((5-oxopyrrolidin-2-yl)-methyl)amino)-methyl)pyridin-2-yl)-[1,1′-biphenyl]-3-yl)-3-((((3-methyloxetan-3-yl)-methyl)-amino)-methyl)-4H-pyrido[1,2-a]pyrimidin-4-one]", "pIC50": 8.17}, {"smiles": "COc1nc(-c2cccc(-c3cccc(-c4ccn5c(=O)c(CNCC6(C)CCC(=O)N6)cnc5c4)c3Cl)c2Cl)ccc1CNC[C@@H]1CCC(=O)N1", "note": "(stereo partly drawn) [Example 368, 8-(2,2′-dichloro-3′-(6-methoxy-5-(((((S)-5-oxopyrrolidin-2-yl)-methyl)-amino)-methyl)-pyridin-2-yl)-[1,1′-biphenyl]-3-yl)-3-((((2-methyl-5-oxopyrrolidin-2-yl)methyl)-amino)-methyl)-4H-pyrido[1,2-a]pyrimidin-4-one]", "pIC50": 9.00}, {"smiles": "Cc1c(-c2ccc3c(c2)CC(N)C3)cccc1-c1cccc(-c2ccn3c(=O)c(CNC[C@@H]4CCC(=O)N4)cnc3c2)c1C", "note": "(mixture of isomers) [Example 41, 8-(3′-(2-Amino-2,3-dihydro-1H-inden-5-yl)-2,2′-dimethyl-[1,1′-biphenyl]-3-yl)-3-(((((S)-5-oxopyrrolidin-2-yl)methyl)amino)methyl)-4H-pyrido[1,2-a]pyrimidin-4-one]", "pIC50": 7.03}, {"smiles": "COc1nc(-c2cccc(-c3cccc(-c4ccn5c(=O)c(CN[C@H]6C[C@](C)(O)C6)c(C)nc5c4)c3Cl)c2Cl)ccc1CN[C@H]1C[C@](C)(O)C1", "note": "[Example 205, 8-(2,2′-Dichloro-3′-(5-((((1r,3r)-3-hydroxy-3-methylcyclobutyl)amino)methyl)-6-methoxypyridin-2-yl)-[1,1′-biphenyl]-3-yl)-3-((((1r,3r)-3-hydroxy-3-methylcyclobutyl)amino)methyl)-2-methyl-4H-pyrido[1,2-a]pyrimidin-4-one]", "pIC50": 9.05}, {"smiles": "COc1nc(-c2cccc(-c3cccc(-c4ccn5c(=O)c(C6=NCCC(C(=O)O)N6)cnc5c4)c3Cl)c2Cl)ccc1CNC[C@@H]1CCC(=O)N1", "note": "(mixture of isomers) [Example 199, 2-(8-(2,2′-Dichloro-3′-(6-methoxy-5-(((((S)-5-oxopyrrolidin-2-yl)methyl)amino)methyl)pyridin-2-yl)-[1,1′-biphenyl]-3-yl)-4-oxo-4H-pyrido[1,2-a]pyrimidin-3-yl)-3,4,5,6-tetrahydropyrimidine-4-carboxylic acid]", "pIC50": 10.00}, {"smiles": "COc1nc(-c2cccc(-c3cccc(-c4ccn5c(=O)c(CN6CC(C(=O)O)C6)cnc5c4)c3Cl)c2Cl)ccc1CN1CC(CO)C1", "note": "[Example 84, 1-((8-(2,2′-Dichloro-3′-(5-((3-(hydroxymethyl)azetidin-1-yl)methyl)-6-methoxypyridin-2-yl)-[1,1′-biphenyl]-3-yl)-4-oxo-4H-pyrido[1,2-a]pyrimidin-3-yl)methyl)azetidine-3-carboxylic acid]", "pIC50": 9.52}, {"smiles": "COc1nc(-c2cccc(-c3cccc(-c4cc5c(cn4)C(=O)N(CCNC[C@@H]4CCC(=O)N4)C5)c3Cl)c2Cl)ccc1CNC[C@@H]1CCC(=O)N1", "note": "[Example 467, 6-(2,2′-Dichloro-3′-(6-methoxy-5-(((((S)-5-oxopyrrolidin-2-yl)methyl)amino)methyl)pyridin-2-yl)-[1,1′-biphenyl]-3-yl)-2-(2-((((S)-5-oxopyrrolidin-2-yl)methyl)amino)ethyl)-1H-pyrrolo[3,4-c]pyridin-3(2H)-one]", "pIC50": 10.00}]}]}
